Results on 22 compounds are retold here after US9522914B2, “Azole derivative” (TAISHO PHARMACEUTICAL CO., LTD, priority 2011, dated 2016).

In this assay the target is Human V1b receptor (Homo sapiens (Human), UniProt P47901). The assay is described as follows: Binding Test for V1b Receptor ([3H]AVP, crude membrane preparation of 293FT cells). The conditions noted are these: inhibition of [3H]AVP binding (0.4 to 1 nmol/L), room temperature, 60 minutes. The gist of the method: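 Crude membranes from 293FT cells transiently expressing human V1b, incubated with [3H]AVP (0.4 to 1 nmol/L) and compound (0.01 nmol/L–1 μmol/L final) in Tris pH 7.4 with MgCl2 and 0.1% BSA, 60 min at room temperature. Bound label collected by filtration. Nonspecific binding defined with unlabeled AVP; IC50 from dose-response curve.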
Sequence of Human V1b receptor (P47901 whole entry): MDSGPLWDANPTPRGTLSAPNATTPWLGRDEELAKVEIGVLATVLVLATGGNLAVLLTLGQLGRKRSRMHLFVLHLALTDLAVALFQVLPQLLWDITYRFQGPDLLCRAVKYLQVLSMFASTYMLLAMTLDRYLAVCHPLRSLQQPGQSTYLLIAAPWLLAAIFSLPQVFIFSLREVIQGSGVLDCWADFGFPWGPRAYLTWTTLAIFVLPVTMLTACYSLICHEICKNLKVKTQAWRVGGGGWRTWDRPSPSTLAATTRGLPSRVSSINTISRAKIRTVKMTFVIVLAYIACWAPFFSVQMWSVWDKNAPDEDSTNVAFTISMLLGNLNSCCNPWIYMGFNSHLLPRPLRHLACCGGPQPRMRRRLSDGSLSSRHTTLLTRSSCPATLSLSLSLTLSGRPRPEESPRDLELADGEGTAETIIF

As usually defined, the IC50 is the concentration at which inhibition is half-maximal. The low end stands for higher potency, the high end for lower potency. Compound `COc1cccc(-c2nc(-c3ccc(CCN4CCC(C(N)=O)CC4)cc3)nn2CC(=O)NC(C)C)c1` [Example B-34, 1-[2-(4-{5-(3-methoxyphenyl)-1-[2-oxo-2-(propan-2-ylamino)ethyl]-1H-1,2,4-triazol-3-yl}phenyl)ethyl]piperidine-4-carboxamide] showed an IC50 of 100 to 1000 nM. Next, `CC(C)NC(=O)Cc1nn(-c2ccc(CCN3CCCCC3)cc2)c(=O)n1-c1cccc(Cl)c1` [Example D-46, 2-[4-(3-chlorophenyl)-5-oxo-1-{4-[2-(piperidin-1-yl)ethyl]phenyl}-4,5-dihydro-1H-1,2,4-triazol-3-yl]-N-(propan-2-yl)acetamide]: 10 to 100 nM; `COc1cccc(-c2nc(-c3ccc(CCN4CCN(C)CC4)cc3)nn2CC(=O)NC(C)C)c1` [Example B-32, 2-[5-(3-methoxyphenyl)-3-{4-[2-(4-methylpiperazin-1-yl)ethyl]phenyl}-1H-1,2,4-triazol-1-yl]-N-(propan-2-yl)acetamide]: 100 to 1000 nM; `COc1cccc(-c2nc(-c3ccc(CCN4CCOCC4)cn3)nn2CC(=O)NC(C)C)c1` [Example B-15, 2-[5-(3-methoxyphenyl)-3-{5-[2-(morpholin-4-yl)ethyl]pyridin-2-yl}-1H-1,2,4-triazol-1-yl]-N-(propan-2-yl)acetamide]: 31 nM. As for `COc1cccc(-c2nc(-c3ccc(CCN4CCOCC4)cc3)cn2CC(=O)NC(C)C)n1` [Example A-29, 2-[2-(6-methoxypyridin-2-yl)-4-{4-[2-(morpholin-4-yl)ethyl]phenyl}-1H-imidazol-1-yl]-N-(propan-2-yl)acetamide], the figure is 27 nM; as for `COc1cccc(-c2nc(-c3ccc(CCN4C5CCC4COC5)cn3)nn2CC(=O)NC(C)(C)C)c1` [Example B-07, N-tert-butyl-2-[5-(3-methoxyphenyl)-3-{5-[2-(3-oxa-8-azabicyclo[3.2.1]oct-8-yl)ethyl]pyridin-2-yl}-1H-1,2,4-triazol-1-yl]acetamide], 4.3 nM. Next, `CC(C)NC(=O)Cn1nc(-c2ccc(CCN3C4CCC3COC4)cn2)nc1-c1ccc(F)c(Cl)c1` [Example B-08, 2-[5-(3-chloro-4-fluorophenyl)-3-{5-[2-(3-oxa-8-azabicyclo[3.2.1]oct-8-yl)ethyl]pyridin-2-yl}-1H-1,2,4-triazol-1-yl]-N-(propan-2-yl)acetamide]: 2.8 nM; `CC(C)NC(=O)Cn1cc(-c2cccc(OCCN3CCCCC3)c2)nc1-c1cccc(Cl)c1` [Example A-34, 2-[2-(3-chlorophenyl)-4-{3-[2-(piperidin-1-yl)ethoxy]phenyl}-1H-imidazol-1-yl]-N-(propan-2-yl)acetamide]: 100 to 1000 nM; `COc1cccc(-c2nc(-c3ccc(CCN4CCOCC4)c(F)c3)nn2CC(=O)NC(C)C)c1` [Example B-19, 2-[3-{3-fluoro-4-[2-(morpholin-4-yl)ethyl]phenyl}-5-(3-methoxyphenyl)-1H-1,2,4-triazol-1-yl]-N-(propan-2-yl)acetamide]: 6.9 nM. `COc1cccc(-c2nc(-c3ccc(CCN4CCC(C)CC4)cc3)nn2CC(=O)NC(C)C)c1` [Example B-23, 2-[5-(3-methoxyphenyl)-3-{4-[2-(4-methylpiperidin-1-yl)ethyl]phenyl}-1H-1,2,4-triazol-1-yl]-N-(propan-2-yl)acetamide]: the IC50 lay within 10 to 100 nM. As for `CC(C)NC(=O)Cc1nn(-c2ccc(CCN3CCCC3)cc2)c(=O)n1-c1ccc(F)c(Cl)c1` [Example D-43, 2-[4-(3-chloro-4-fluorophenyl)-5-oxo-1-{4-[2-(pyrrolidin-1-yl)ethyl]phenyl}-4,5-dihydro-H-1,2,4-triazol-3-yl]-N-(propan-2-yl)acetamide], the figure is 15 nM. As for `COc1cccc(-c2nc(-c3ccc(CCN4CCC(F)(F)CC4)cc3)nn2CC(=O)NC(C)C)c1` [Example B-40, 2-[3-{4-[2-(4,4-difluoropiperidin-1-yl)ethyl]phenyl}-5-(3-methoxyphenyl)-1H-1,2,4-triazol-1-yl]-N-(propan-2-yl)acetamide], the half-maximal inhibitory concentration (IC50) lay in the range of 10 to 100 nM. Compound `COc1cc(-c2nc(-c3ccc(CCN4CC(C)OC(C)C4)cc3)cn2CC(=O)NC(C)C)ccc1F` (stereo not shown) [Example A-20, 2-[4-{4-[2-(2,6-dimethylmorpholin-4-yl)ethyl]phenyl}-2-(4-fluoro-3-methoxyphenyl)-1H-imidazol-1-yl]-N-(propan-2-yl)acetamide] displayed an IC50 of 12 nM.

Take `CC(C)NC(=O)Cc1nc(-c2ccc(CCN3CCOCC3)cc2)oc1-c1cccc(Cl)c1` [Example C-09, 2-[5-(3-chlorophenyl)-2-{4-[2-(morpholin-4-yl)ethyl]phenyl}-1,3-oxazol-4-yl]-N-(propan-2-yl)acetamide]: the 50% inhibitory concentration (IC50) stood at 27 nM. Next, `CC(C)NC(=O)Cc1nc(-c2ccc(CCN3CCCCC3)cc2)sc1-c1cccc(Cl)c1` [Example C-13, 2-[5-(3-chlorophenyl)-2-{4-[2-(piperidin-1-yl)ethyl]phenyl}-1,3-thiazol-4-yl]-N-(propan-2-yl)acetamide]: 16 nM; `CC(C)NC(=O)Cc1nn(-c2ccc(CCN3CC4(COC4)C3)cc2)c(=O)n1-c1cccc(Cl)c1` [Example D-61, 2-[4-(3-chlorophenyl)-1-{4-[2-(2-oxa-6-azaspiro[3.3]hept-6-yl)ethyl]phenyl}-5-oxo-4,5-dihydro-1H-1,2,4-triazol-3-yl]-N-(propan-2-yl)acetamide]: 10 to 100 nM; `CC(C)NC(=O)Cc1cn(-c2ccc(CCN3CCCCC3)cc2)nc1-c1cccc(Cl)c1` [Example C-02, 2-[3-(3-chlorophenyl)-1-{4-[2-(piperidin-1-yl)ethyl]phenyl}-1H-pyrazol-4-yl]-N-(propan-2-yl)acetamide]: 13 nM. As to `CC(C)NC(=O)Cc1nn(-c2ccc(CCN3C4CCC3COC4)cc2)c(=O)n1-c1ccc(F)c(Cl)c1` [Example D-27, 2-[4-(3-chloro-4-fluorophenyl)-1-{4-[2-(3-oxa-8-azabicyclo[3.2.1]oct-8-yl)ethyl]phenyl}-5-oxo-4,5-dihydro-1H-1,2,4-triazol-3-yl]-N-(propan-2-yl)acetamide], the half-inhibitory concentration (IC50) amounted to 5.3 nM.

On to `CC(C)NC(=O)Cc1nc(-c2ccc(CCN3CCCCC3)cc2)oc1-c1cccc(Cl)c1` [Example C-08, 2-[5-(3-chlorophenyl)-2-{4-[2-(piperidin-1-yl)ethyl]phenyl}-1,3-oxazol-4-yl]-N-(propan-2-yl)acetamide], for which the 50% inhibitory concentration (IC50) fell in the range of 10 to 100 nM. As for `CC(C)NC(=O)Cn1cc(-c2ccc(CCN3C4CCC3COC4)cn2)nc1-c1cccc(Cl)c1` [Example A-27, 2-[2-(3-chlorophenyl)-4-{5-[2-(3-oxa-8-azabicyclo[3.2.1]oct-8-yl)ethyl]pyridin-2-yl}-1H-imidazol-1-yl]-N-(propan-2-yl)acetamide], the figure is 3.6 nM; as for `COc1cccc(-c2nc(-c3ccc(CCN4CCN(C(C)=O)CC4)cc3)nn2CC(=O)NC(C)C)c1` [Example B-33, 2-[3-{4-[2-(4-acetylpiperazin-1-yl)ethyl]phenyl}-5-(3-methoxyphenyl)-1H-1,2,4-triazol-1-yl]-N-(propan-2-yl)acetamide], 100 to 1000 nM.

`CC(C)NC(=O)Cc1nn(-c2ccc(CCN3C4CCC3COC4)cn2)c(=O)n1-c1ccc(F)c(Cl)c1` [Example D-29, 2-[4-(3-chloro-4-fluorophenyl)-1-{5-[2-(3-oxa-8-azabicyclo[3.2.1]oct-8-yl)ethyl]pyridin-2-yl}-5-oxo-4,5-dihydro-1H-1,2,4-triazol-3-yl]-N-(propan-2-yl)acetamide] registered a concentration for half-maximal inhibition (IC50) of 10 to 100 nM.
